According to patent US9879043B1, “Synthesis of non-natural cofactor analogs of S-adenosyl-L-methionine using methionine adenosyltransferase” (University of Kentucky Research Foundation, priority 2013, dated 2018):

What was measured:
Type in all cases: biochemical
[1] = target: Escherichia coli MAT (eMAT) (Escherichia coli, UniProt P0A817); experiment: MAT assay, turnover of S/Se-Met analogs to S(Se)AM analogs (RP-HPLC end point); conditions: 2 mM Met analog, 1 mM ATP, 5 μM MAT, pH 8, 4 h, 37° C.; average of two assays
Method: (§1) Standard uniform assay conditions (2 mM Met analog, 1 mM ATP, 5 μM MAT, 25 mM Tris, 5 mM MgCl2, 50 mM KCl, pH 8, 4 h) were adopted to facilitate this broad assessment. For the thermophilic counterpart (mMAT), reactions were conducted at 65° C., while all other reactions were incubated at 37° C. Production of SAM analogs was determined by an RP-HPLC end point assay to afford complete analysis of the desired SAM analog and/or any corresponding degradation products known to directly derive from the desired SAM analog intermediate. Putative SAM analog and SAM-derived degradative product formation was subsequently confirmed via high-resolution mass spectrometry (HRMS) analysis for all positive reactions (see Table 2).
(§2) To monitor MAT reactions, analytical RP HPLC employed a Luna C18 column (5 μm, 4.6 mm×250 mm; Phenomenex, Torrance, Calif., USA) [gradient of 10% B to 40% B over 15 min, 40% B to 75% B over 5 min (A=10 mM NaH2PO4, 5 mM octane sulfonic acid, pH was adjusted to 3.5 using phosphoric acid; B=acetonitrile) flow rate=1 mL min^−1; A254].
(§3) In vitro MAT reactions were conducted in a volume of 50 μl with 2 mM S/Se-alkylated analog (compounds 2-30), 1 mM ATP and 5 μM purified MAT in 25 mM Tris buffer pH 8.0, 5 mM MgCl2, 50 mM KCl for 4 h. The sMAT and mMAT reactions were conducted at 65° C. while hMATs and eMAT were incubated at 37° C. Reactions were quenched by adding an equal volume of methanol followed by centrifugation (10,000×g for 15 min) to remove the precipitated protein and product formation for each reaction was subsequently analyzed by RP-HPLC using Method D (FIG. 15, first column). For each reaction, percent yield was based upon the integration of species at 254 nm and calculated by dividing the integrated area of product and/or decomposed product by the sum of integrated area of product and/or decomposed product and the remaining substrate. The assays were repeated twice under identical conditions, and Table 2 (and FIG. 5) represents an average value of two assays. The inclusion of adenine and 5′-R-thio-5′-adenosine in these calculations is based upon the established SAM and ATP chemical decomposition pathways which indicate adenine and 5′-R-thio-5′-adenosine to only derive from SAM (not ATP). All putative products were subsequently confirmed by high resolution electrospray ionization (ESI) mass spectra with positive (+) and/or negative (−) mode.

[2] = target: human MAT I catalytic subunit alpha (hMAT1A) (Homo sapiens, UniProt Q00266); experiment: as above; conditions: 2 mM Met analog, 1 mM ATP, 5 μM MAT, pH 8, 4 h, 37° C.; average of two assays
Method: as §1, with “intermediate.” for “intermediate. Putative SAM analog and SAM-derived degradative product formation was subsequently confirmed via high-resolution mass spectrometry (HRMS) analysis for all positive reactions (see Table 2).”
as §2
as §3, with “The” for “In vitro MAT reactions were conducted in a volume of 50 μl with 2 mM S/Se-alkylated analog (compounds 2-30), 1 mM ATP and 5 μM purified MAT in 25 mM Tris buffer pH 8.0, 5 mM MgCl2, 50 mM KCl for 4 h. The”

[3] = target: human MAT II catalytic alpha and regulatory beta subunit (hMAT2) (Homo sapiens, UniProt P31153); experiment: as above; conditions: 2 mM Met analog, 1 mM ATP, 5 μM MAT, pH 8, 4 h, 37° C.; average of two assays
Method: as §1, with “intermediate.” for “intermediate. Putative SAM analog and SAM-derived degradative product formation was subsequently confirmed via high-resolution mass spectrometry (HRMS) analysis for all positive reactions (see Table 2).”
as §2
as §3, with “The” for “In vitro MAT reactions were conducted in a volume of 50 μl with 2 mM S/Se-alkylated analog (compounds 2-30), 1 mM ATP and 5 μM purified MAT in 25 mM Tris buffer pH 8.0, 5 mM MgCl2, 50 mM KCl for 4 h. The”

[4] = target: human MAT II catalytic alpha subunit alone (hMAT2A) (Homo sapiens, UniProt P31153); experiment: as above; conditions: 2 mM Met analog, 1 mM ATP, 5 μM MAT, pH 8, 4 h, 37° C.; average of two assays
Method: as §1, with “intermediate.” for “intermediate. Putative SAM analog and SAM-derived degradative product formation was subsequently confirmed via high-resolution mass spectrometry (HRMS) analysis for all positive reactions (see Table 2).”
as §2
as §3, with “The” for “In vitro MAT reactions were conducted in a volume of 50 μl with 2 mM S/Se-alkylated analog (compounds 2-30), 1 mM ATP and 5 μM purified MAT in 25 mM Tris buffer pH 8.0, 5 mM MgCl2, 50 mM KCl for 4 h. The”

[5] = target: T1, Methanocaldococcus jannaschii MAT (mMAT) (Methanocaldococcus jannaschii, UniProt Q58605); conditions: 2 mM Met analog, 1 mM ATP, 5 μM MAT, pH 8, 4 h, 65° C.; average of two assays
T1 sequence (Q58605 1-406): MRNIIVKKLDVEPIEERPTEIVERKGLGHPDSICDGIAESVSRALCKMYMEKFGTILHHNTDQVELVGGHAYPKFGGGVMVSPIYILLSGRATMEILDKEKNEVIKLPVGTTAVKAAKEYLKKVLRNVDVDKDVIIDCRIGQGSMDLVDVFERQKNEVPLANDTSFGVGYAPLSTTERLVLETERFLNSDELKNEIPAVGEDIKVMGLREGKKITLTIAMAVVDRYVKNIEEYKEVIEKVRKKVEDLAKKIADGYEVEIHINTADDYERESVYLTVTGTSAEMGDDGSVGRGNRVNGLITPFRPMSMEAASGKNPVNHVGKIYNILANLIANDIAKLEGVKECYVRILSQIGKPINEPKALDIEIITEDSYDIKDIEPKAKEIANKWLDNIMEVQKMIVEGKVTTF
Method: as §1, with “intermediate.” for “intermediate. Putative SAM analog and SAM-derived degradative product formation was subsequently confirmed via high-resolution mass spectrometry (HRMS) analysis for all positive reactions (see Table 2).”
as §2
as §3, with “The” for “In vitro MAT reactions were conducted in a volume of 50 μl with 2 mM S/Se-alkylated analog (compounds 2-30), 1 mM ATP and 5 μM purified MAT in 25 mM Tris buffer pH 8.0, 5 mM MgCl2, 50 mM KCl for 4 h. The”

[6] = target: T2, Sulfolobus solfataricus MAT (sMAT) (Saccharolobus solfataricus, UniProt Q980S9); conditions: 2 mM analog, 1 mM ATP, 5 μM sMAT, pH 8.0, 4 h at 65° C.; average of two assays
T2 sequence (Q980S9 1-404): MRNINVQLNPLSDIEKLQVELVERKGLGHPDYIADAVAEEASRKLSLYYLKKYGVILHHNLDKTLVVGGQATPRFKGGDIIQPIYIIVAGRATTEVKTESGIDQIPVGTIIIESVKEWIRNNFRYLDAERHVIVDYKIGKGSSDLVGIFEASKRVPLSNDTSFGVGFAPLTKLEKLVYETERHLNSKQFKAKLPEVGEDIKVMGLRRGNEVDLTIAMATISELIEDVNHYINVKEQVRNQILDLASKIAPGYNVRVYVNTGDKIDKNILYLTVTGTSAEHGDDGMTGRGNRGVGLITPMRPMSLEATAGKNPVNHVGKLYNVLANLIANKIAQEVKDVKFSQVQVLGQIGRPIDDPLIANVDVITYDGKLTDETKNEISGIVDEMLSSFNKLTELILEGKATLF
Method: In-vitro sMAT assay: In vitro sMAT reactions were conducted in a volume of 50 μl with 2 mM S/Se-alkylated analog, 1 mM ATP and 5 μM purified sMAT in 25 mM Tris buffer pH 8.0, 5 mM MgCl2, 50 mM KCl for 4 h at 65° C. Reactions were quenched by adding an equal volume of methanol followed by centrifugation (10,000×g for 15 min) to remove the precipitated protein and product formation for each reaction was subsequently analyzed by reverse phase HPLC (RP-HPLC) using method described below. For each reaction, percent yield was based upon the integration of species at 254 nm and calculated by dividing the integrated area of product and/or decomposed product by the sum of integrated area of product and/or decomposed product and the remaining substrate. The assays were repeated twice under identical conditions, and Table 4 (and FIG. 17) represents an average value of two assays. The inclusion of adenine and 5′-R-thio-5′-adenosine in these calculations is based upon the established SAM and ATP chemical decomposition pathways which indicate adenine and 5′-R-thio-5′-adenosine to only derive from SAM (not ATP). All putative products were subsequently confirmed by high resolution electrospray ionization (ESI) mass spectra with positive (+) and/or negative (−) mode.
RP-HPLC method: Reactions were quenched by the addition of equal volume of methanol followed by centrifugation at 10,000 g for 15 min to remove precipitated protein before applying on an analytical Varian ProStar HPLC [Luna C18 column, 5 μm, 4.6 mm×250 mm; Phenomenex, Torrance, Calif., USA; gradient of 10% B to 40% B over 15 min, 40% B to 75% B over 5 min (A=10 mM NaH2PO4, 5 mM octane sulfonic acid, pH was adjusted to 3.5 using phosphoric acid; B=acetonitrile) flow rate=1 mL min^−1; A254].

| Compound | Percentage Turn-over eMAT [1] [%] | Percentage Turn-over hMAT1A [2] [%] | Percentage Turn-over hMAT2 [3] [%] | Percentage Turn-over hMAT2A [4] [%] | Percentage Turn-over mMAT [5] [%] | Percentage Turn-Over (sMAT) [6] [%] |
| --- | --- | --- | --- | --- | --- | --- |
| CCCSCC[C@H](N)C(=O)O [compound 8, (2S)-2-amino-4-(propylsulfanyl)butanoic acid] | 2 | 5 | 55 | 54 | 21 | 44 |
| CC(C)SCC[C@H](N)C(=O)O [compound 9, (2S)-2-amino-4-(propan-2-ylsulfanyl)butanoic acid] | 0 | 2 | 2 | 2 | 8 | 53 |
| C#CCCSCC[C@H](N)C(=O)O [compound 10, (2S)-2-amino-4-(but-3-yn-1-ylsulfanyl)butanoic acid] | 0 | 0 | 40 | 12 | 16 | 30 |
| C/C=C/CSCC[C@H](N)C(=O)O [compound 11, (2S)-2-amino-4-[(2E)-but-2-en-1-ylsulfanyl]butanoic acid] | 2 | 2 | 25 | 5 | 30 | 27 |
| C=C(C)CSCC[C@H](N)C(=O)O [compound 12, (2S)-2-amino-4-[(2-methylprop-2-en-1-yl)sulfanyl]butanoic acid] | 0 | 0 | 2 | 2 | 6 | 15 |
| CCCCSCC[C@H](N)C(=O)O [compound 13, (2S)-2-amino-4-(butylsulfanyl)butanoic acid] | 0 | 0 | 13 | 12 | 12 | 27 |
| CC(C)CSCC[C@H](N)C(=O)O [compound 14, (2S)-2-amino-4-[(2-methylpropyl)sulfanyl]butanoic acid] | 0 | 0 | 0 | 0 | 1 | 57 |
| C=C/C=C/CSCC[C@H](N)C(=O)O [compound 16, (2S)-2-amino-4-[(2E)-penta-2,4-dien-1-ylsulfanyl]butanoic acid] | 4 | 2 | 44 | 4 | 8 | 14 |
| [N-]=[N+]=NCCSCC[C@H](N)C(=O)O [compound 17, (2S)-2-amino-4-[(2-azidoethyl)sulfanyl]butanoic acid] | 0 | 4 | 49 | 18 | 29 | 50 |
| CC(C)CCSCC[C@H](N)C(=O)O [compound 18, (2S)-2-amino-4-[(3-methylbutyl)sulfanyl]butanoic acid] | 0 | 0 | 0 | 0 | 1 | 36 |
| CC(C)=CCSCC[C@H](N)C(=O)O [compound 19, (2S)-2-amino-4-[(3-methylbut-2-en-1-yl)sulfanyl]butanoic acid] | 3 | 0 | 6 | 4 | 13 | 12 |
| [N-]=[N+]=NCCCSCC[C@H](N)C(=O)O [compound 21, (2S)-2-amino-4-[(3-azidopropyl)sulfanyl]butanoic acid] | 0 | 0 | 46 | 19 | 31 | 60 |
